Molecular target: T1, Human M4 (Homo sapiens, UniProt P08173)
T1 construct: expressed in transfected cells
T1 sequence (P08173 1-479): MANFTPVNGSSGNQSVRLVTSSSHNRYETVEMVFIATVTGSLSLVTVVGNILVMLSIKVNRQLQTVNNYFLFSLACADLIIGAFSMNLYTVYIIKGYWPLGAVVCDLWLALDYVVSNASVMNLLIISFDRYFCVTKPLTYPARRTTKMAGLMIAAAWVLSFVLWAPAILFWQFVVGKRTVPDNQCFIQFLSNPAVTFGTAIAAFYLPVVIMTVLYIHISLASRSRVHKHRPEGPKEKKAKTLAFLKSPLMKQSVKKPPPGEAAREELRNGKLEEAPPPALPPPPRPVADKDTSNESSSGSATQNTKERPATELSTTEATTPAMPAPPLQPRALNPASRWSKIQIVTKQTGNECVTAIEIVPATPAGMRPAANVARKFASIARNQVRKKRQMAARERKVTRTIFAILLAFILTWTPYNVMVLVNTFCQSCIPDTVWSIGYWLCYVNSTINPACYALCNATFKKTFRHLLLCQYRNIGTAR
Test: mAChR M4 cell-based functional assay (calcium flux, potentiation of EC20 acetylcholine response), hM4-Gqi5 CHO-K1 cells
Conditions: for Emax at 30 µM: CHO-K1, % ACh maximum at 30 μM, human M4, read-out: Emax; for EC50: hM4-Gqi5 CHO-K1 cells, calcium flux, PAM of EC20 acetylcholine, read-out: Human M4 EC50
Method in brief: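 CHO-K1 cells stably expressing human M4 with chimeric Gqi5, loaded with Fluo-4 AM 50 min at 37 °C; calcium flux read by FDSS. 11-point 1:3 compound curves added, then EC20 acetylcholine at 144 s; potentiation of the EC20 response fitted by four-parameter logistic to give EC50 and Emax.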

Row | Emax at 30 µM [%] | EC50 [nM] | SMILES
1 | 90 | 496 | Cc1c(N2CCc3ncc(-c4cnn(CC5CC5)c4)cc3C2)nn2c(C(F)(F)F)nnc2c1C [Compound 95, 3-[1-(cyclopropylmethyl)pyrazol-4-yl]-6-[7,8-dimethyl-3-(trifluoromethyl)-[1,2,4]triazolo[4,3-b]pyridazin-6-yl]-7,8-dihydro-5H-1,6-naphthyridine]
2 | 97 | 106 | Cc1c(N2CCc3ncc(-c4cncs4)cc3C2)nn2c(C(F)(F)F)nnc2c1C [Compound 96, 5-[6-[7,8-dimethyl-3-(trifluoromethyl)-[1,2,4]triazolo[4,3-b]pyridazin-6-yl]-7,8-dihydro-5H-1,6-naphthyridin-3-yl]thiazole]
3 | 87 | 198 | Cc1c(N2CCc3ncc(-c4cnn(C5CCCC5)c4)cc3C2)nn2cnnc2c1C [Compound 97, 3-(1-cyclopentylpyrazol-4-yl)-6-(7,8-dimethyl-[1,2,4]triazolo[4,3-b]pyridazin-6-yl)-7,8-dihydro-5H-1,6-naphthyridine]
4 | 102 | 332 | Cc1c(N2CCc3ncc(-c4cnn(CC(F)(F)F)c4)cc3C2)nn2cnnc2c1C [Compound 98, 6-(7,8-dimethyl-[1,2,4]triazolo[4,3-b]pyridazin-6-yl)-3-[1-(2,2,2-trifluoroethyl)pyrazol-4-yl]-7,8-dihydro-5H-1,6-naphthyridine]
5 | 95 | 276 | Cc1c(N2CCc3ncc(-c4cnn(C5CCC5)c4)cc3C2)nn2cnnc2c1C [Compound 99, 3-(1-cyclobutylpyrazol-4-yl)-6-(7,8-dimethyl-[1,2,4]triazolo[4,3-b]pyridazin-6-yl)-7,8-dihydro-5H-1,6-naphthyridine]
6 | 101 | 249 | CCn1cc(-c2cnc3c(c2)CN(c2nn4cnnc4c(C)c2C)CC3)cn1 [Compound 100, 6-(7,8-dimethyl-[1,2,4]triazolo[4,3-b]pyridazin-6-yl)-3-(1-ethylpyrazol-4-yl)-7,8-dihydro-5H-1,6-naphthyridine]
7 | 98 | 389 | Cc1c(N2CCc3ncc(-c4cc[nH]c4)cc3C2)nn2cnnc2c1C [Compound 101, 6-(7,8-dimethyl-[1,2,4]triazolo[4,3-b]pyridazin-6-yl)-3-(1H-pyrrol-3-yl)-7,8-dihydro-5H-1,6-naphthyridine]
8 | 94 | 105 | Cc1ccncc1-c1cnc2c(c1)CN(c1nn3cnnc3c(C)c1C)CC2 [Compound 102, 6-(7,8-dimethyl-[1,2,4]triazolo[4,3-b]pyridazin-6-yl)-3-(4-methyl-3-pyridyl)-7,8-dihydro-5H-1,6-naphthyridine]
9 | 97 | 232 | Cc1cc2nncn2nc1N1CCc2ncc(-c3cncs3)cc2C1 [Compound 103, 5-[6-(7-methyl-[1,2,4]triazolo[4,3-b]pyridazin-6-yl)-7,8-dihydro-5H-1,6-naphthyridin-3-yl]thiazole]
10 | 91 | 398 | Cc1cc2nncn2nc1N1CCc2ncc(-c3c(C)nn(C)c3C)cc2C1 [Compound 104, 6-(7-methyl-[1,2,4]triazolo[4,3-b]pyridazin-6-yl)-3-(1,3,5-trimethylpyrazol-4-yl)-7,8-dihydro-5H-1,6-naphthyridine]
11 | 86 | 325 | Cc1cc2nncn2nc1N1CCc2ncc(-c3c(C)noc3C)cc2C1 [Compound 105, 3,5-dimethyl-4-[6-(7-methyl-[1,2,4]triazolo[4,3-b]pyridazin-6-yl)-7,8-dihydro-5H-1,6-naphthyridin-3-yl]isoxazole]
12 | 59 | 234 | Cc1cc2nncn2nc1N1CCc2ncc(-c3cnn(C4CCCCC4)c3)cc2C1 [Compound 106, 3-(1-cyclohexylpyrazol-4-yl)-6-(7-methyl-[1,2,4]triazolo[4,3-b]pyridazin-6-yl)-7,8-dihydro-5H-1,6-naphthyridine]
13 | 80 | 113 | Cc1cc2nccn2nc1N1CCc2ncc(-c3cncs3)cc2C1 [Compound 107, 5-[6-(7-methylimidazo[1,2-b]pyridazin-6-yl)-7,8-dihydro-5H-1,6-naphthyridin-3-yl]thiazole]
14 | 85 | 399 | Cc1cc2nccn2nc1N1CCc2ncc(-c3cn(C)nc3C)cc2C1 [Compound 108, 3-(1,3-dimethylpyrazol-4-yl)-6-(7-methylimidazo[1,2-b]pyridazin-6-yl)-7,8-dihydro-5H-1,6-naphthyridine]
15 | 81 | 450 | Cc1cc2nccn2nc1N1CCc2ncc(-c3c(C)nn(C)c3C)cc2C1 [Compound 109, 6-(7-methylimidazo[1,2-b]pyridazin-6-yl)-3-(1,3,5-trimethylpyrazol-4-yl)-7,8-dihydro-5H-1,6-naphthyridine]
16 | 62 | 236 | Cc1cc2nccn2nc1N1CCc2ncc(-c3c(C)noc3C)cc2C1 [Compound 110, 3,5-dimethyl-4-[6-(7-methylimidazo[1,2-b]pyridazin-6-yl)-7,8-dihydro-5H-1,6-naphthyridin-3-yl]isoxazole]
17 | 69 | 1180 | Cc1cc2nccn2nc1N1CCc2ncc(-c3ccn(C)n3)cc2C1 [Compound 111, 6-(7-methylimidazo[1,2-b]pyridazin-6-yl)-3-(1-methylpyrazol-3-yl)-7,8-dihydro-5H-1,6-naphthyridine]
18 | 101 | 124 | Cc1c(N2CCc3ncc(-c4cnn(C)c4)cc3C2)nn2cnnc2c1C [Compound 112, 6-(7,8-dimethyl-[1,2,4]triazolo[4,3-b]pyridazin-6-yl)-3-(1-methylpyrazol-4-yl)-7,8-dihydro-5H-1,6-naphthyridine]
19 | 97 | 330 | Cc1cc2nncn2nc1N1CCc2ncc(-c3cn(C)nc3C)cc2C1 [Compound 113, 3-(1,3-dimethylpyrazol-4-yl)-6-(7-methyl-[1,2,4]triazolo[4,3-b]pyridazin-6-yl)-7,8-dihydro-5H-1,6-naphthyridine]
20 | 88 | 707 | Cc1cc2nncn2nc1N1CCc2ncc(-c3ccn(C)n3)cc2C1 [Compound 114, 3-(1-methylpyrazol-3-yl)-6-(7-methyl-[1,2,4]triazolo[4,3-b]pyridazin-6-yl)-7,8-dihydro-5H-1,6-naphthyridine]
21 | 73 | 4180 | Cc1c(N2CCc3ncc(C(=O)NCc4ccc(C(C)(C)O)cc4)cc3C2)nn2cnnc2c1C [Compound 115, 6-(7,8-dimethyl-[1,2,4]triazolo[4,3-b]pyridazin-6-yl)-N-[[4-(1-hydroxy-1-methyl-ethyl)phenyl]methyl]-7,8-dihydro-5H-1,6-naphthyridine-3-carboxamide]
22 | 75 | – | Cc1c(N2CCc3ncc(C(=O)NCC4CCCOC4)cc3C2)nn2cnnc2c1C (stereo not drawn) [Compound 116, 6-(7,8-dimethyl-[1,2,4]triazolo[4,3-b]pyridazin-6-yl)-N-(tetrahydropyran-3-ylmethyl)-7,8-dihydro-5H-1,6-naphthyridine-3-carboxamide]
23 | 67 | – | Cc1c(N2CCc3ncc(C(=O)N4CC(F)C4)cc3C2)nn2cnnc2c1C [Compound 117, [6-(7,8-dimethyl-[1,2,4]triazolo[4,3-b]pyridazin-6-yl)-7,8-dihydro-5H-1,6-naphthyridin-3-yl]-(3-fluoroazetidin-1-yl)methanone]
24 | 99 | 707 | Cc1c(N2CCc3ncc(C(=O)NCc4cncs4)cc3C2)nn2cnnc2c1C [Compound 118, 6-(7,8-Dimethyl-[1,2,4]triazolo[4,3-b]pyridazin-6-yl)-N-(thiazol-5-ylmethyl)-7,8-dihydro-5H-1,6-naphthyridine-3-carboxamide]
25 | 73 | – | Cc1c(N2CCc3ncc(C(=O)N4CCC(O)CC4C)cc3C2)nn2cnnc2c1C (stereo not drawn) [Compound 119, [6-(7,8-dimethyl-[1,2,4]triazolo[4,3-b]pyridazin-6-yl)-7,8-dihydro-5H-1,6-naphthyridin-3-yl]-(4-hydroxy-2-methyl-1-piperidyl)methanone]
26 | 76 | – | Cc1c(N2CCc3ncc(C(=O)NCC4COC4)cc3C2)nn2cnnc2c1C [Compound 120, 6-(7,8-dimethyl-[1,2,4]triazolo[4,3-b]pyridazin-6-yl)-N-(oxetan-3-ylmethyl)-7,8-dihydro-5H-1,6-naphthyridine-3-carboxamide]
27 | 100 | 881 | Cc1c(N2CCc3ncc(C(=O)NCc4cccs4)cc3C2)nn2cnnc2c1C [Compound 121, 6-(7,8-dimethyl-[1,2,4]triazolo[4,3-b]pyridazin-6-yl)-N-(2-thienylmethyl)-7,8-dihydro-5H-1,6-naphthyridine-3-carboxamide]
28 | 51 | – | Cc1c(N2CCc3ncc(C(=O)N4CCN(C5CC5)CC4)cc3C2)nn2cnnc2c1C [Compound 122, (4-cyclopropylpiperazin-1-yl)-[6-(7,8-dimethyl-[1,2,4]triazolo[4,3-b]pyridazin-6-yl)-7,8-dihydro-5H-1,6-naphthyridin-3-yl]methanone]
